Measured values reported in patent publication US20250122193A1, “NOVEL PYRIDOCARBAZOLIUM COMPOUNDS AND MEDICAL USES THEREOF” (MyCural Therapeutics, priority 2021, published 2025).

What was measured:
[1] = test system: NCI-60 human tumor cell lines; assay: NCI-60 GI50 response versus MYC level
Source text: “Responsive” and “less responsive”; cell lines with positive and negative log 10 GI50 values, respectively. “Higher MYC” and “lower MYC”; cell lines with higher and lower MYC expression levels (MYC mRNA/protein) than average, respectively.
To investigate whether the levels of MYC expression in tumor cells correlate with growth inhibitory response to MYCMI-7, we utilized GI50 and mRNA expression data from the NCI-60 diverse human tumor cell line panel available for MYCMI-7 by the Developmental Therapeutics Program of the U.S. National Cancer Institute (DTP-NCI). […] The cell lines were categorized as “responsive” or “less responsive” to MYCMI-7 based on average logarithmic GI50 values, as well as the categories “higher MYC” and “lower MYC” based on higher or lower than average MYC mRNA and/or high protein levels.

[2] = intracerebroventricular injection, toxicity; conditions: highest concentration (10 μM)
Source text: First, we performed a pharmacokinetic study of the behavior of the molecule in mice.

[3] = target: Recombinant human Top2a (Homo sapiens, UniProt P11388); assay: Top2 decatenation assay; assay type: biochemical; conditions: in vitro decatenation of kDNA
Experimental: Top2 decatenation assay: Recombinant human Top2a (15 nM) was incubated with 80 ng catenated kinetoplast DNA (Topogen, TG2013) in Top2 reaction buffer (50 mM Tris pH8, 150 mM NaCl, 10 mM MgCl2, 0.5 mM DTT, 30 μg/ml BSA) with 1-100 μM of either doxorubicin, MYCMI-7, ellipticine or camptothecin for 10 minutes at 37° C. Drug dilutions were made in a DMSO/H2O solution so that a final concentration of 1% DMSO was consistent across all samples. The reaction was stopped with the addition of SDS to a final concentration of 1% and the Top2a was digested by Proteinase K at 55° C. for 10 minutes. DNA was purified by phenol:chloroform extraction before running on a 1% agarose gel either containing or post-stained with 0.5 μg/ml ethidium bromide. The decatenated products were quantified, normalised to the Top2α+DMSO control and plotted using GraphPad Prism.
First, we utilized an in vitro TOP2A decatenation assay. TOP2 enzymes decatenate kinetoplast DNA (kDNA) converting a network of interlocking DNA rings into individual rings that can be separated by agarose gel electrophoresis.

[4] = test system: HCT116-TIR-AID cells; assay: auxin-induced TOP2A depletion in HCT116 cells; assay type: cell-based
[5] = test system: ODC1 expression; assay: MYC target gene ODC1 expression by qPCR; assay type: cell-based; conditions: 5 μM
Experimental: FIG. 1: MYCMI-7 (Compound Example 1) inhibits the MYC:MAX interaction in cells, bind MYC in vitro, and blocks MYC function. A) Molecular structure of MYCMI-7. B-E) split Gaussia luciferase (GLuc) assay. MYC or MYCN and MAX Gluc constructs were co-transfected into HeLa cells together with a firefly luciferase vector. 24 hours post transfection cells were treated with compounds, and after another 17-24 hours cells were harvested and both GLuc and firefly luciferase activities were measured. The mean of three different experiments is shown. Treatment with: B) 5 μM of MYCMI-7, 64 μM 10058-F4 or 5 μM JQ1, respectively, C) 6.5 μM MYCMI-7 on cells expressing MYC:MAX GLuc vs. GCN4:GCN4 GLuc, D) 5 μM MYCMI-7 and 5 μM ellipticine. E) 5 μM MYCMI-7 for various time points. F) in situ proximity ligation assay (isPLA). […] MYC:GAL4 was used as negative control in the isPLA assay. G) Quantification of isPLA dots. (H) Co-immunoprecipitation (co-IP) of endogenous MYC and MAX proteins from MCF7 cells after treatment with 5 μM MYCMI-7 at various times. IP=immunoprecipitation; W=western blot. […] J) MYC target gene ODC1 expression after treatment with 5 μM MYCMI-7, quantified by qPCR. […] L) Recombinant MYC bHLHZip protein domain immobilized onto a CM5 chip was subjected to various concentrations of MYCMI-7 and the complex of MYCbHLHZip-MYCMI-7 was measured as response units by SPR. […]

[6] = target: T1, MYCN (Homo sapiens, UniProt P04198); assay: MYCN expression in Kelly neuroblastoma cells; assay type: cell-based
T1 construct: endogenous in cells; host or cells: Kelly neuroblastoma cells
Experimental: For western blot equal amounts of proteins ([…]) were separated on a 4-12% SDS-PAGE gel. Proteins were transferred to Immobilion-P membrane (Millipore) and detected by immunostaining and chemoluminescence (Immobilion western HRP substrate; Millipore). For immunoprecipitations 500-1000 μg of protein was used. […] Briefly, cells were crosslinked with 1% formaldehyde on ice for 6 minutes. Nuclear chromatin was sonicated on ice to fragments from 0.3 kb to 0.5 kb. Nuclear chromatin equivalent to 2.5×10^7 cells was immunoprecipitated with 2 μg antibody.

[7] = test system: primary patient derived AML cell cultures and established AML/CML cell lines; assay: primary AML cells and AML/CML cell lines, WST-1 assay
Experimental: C) Primary AML cells from patient biopsies where cultured for 72 hours in presence of MYCMI-7 at indicated doses cell growth was monitored by the WST-1 assay. One representative biological experiment out of at three, performed in triplicates is shown.
Cell growth and viability assays: Cell growth and viability was estimated in triplicates with WST-1 (Roche) or Resazurin sodium salt (Sigma-Aldrich) assays in medium at 37° C. and 5% CO2 for 2 hours after which absorbance or fluorescence, respectively, was measured with an Omega Fluostar (BMG Labtech) in a 96 well plate format. Cell viability by the Cyt60 assay was carried out as in manufacturers' protocol.

[8] = test system: immortalized Rat1 fibroblasts with different MYC status; assay: apoptosis assay (Cell Death Detection ELISA), Rat1 fibroblasts; assay type: cell-based, rat; conditions: 24 hours
Experimental: FIG. 4: MYCMI-7 induces apoptosis in malignant cells and growth arrest in normal cells. A) Cell cycle distribution analysis by flow cytometry of MYC-regulated P493-6 cells and normal rat embryo fibroblasts (REFs). Left panel, P493-6 synchronized in G0 by 24 hours treatment of […] doxycycline. Doxycycline was removed and the cells were harvested 48 hours after the addition of fresh medium containing DMSO or 5 μM MYCMI-7. Right panel, flow cytometry analysis of normal REFs treated with DMSO or 5 μM MYCMI-7. B) Apoptosis assay using the Cell Death Detection ELISA^plus kit. Left panel, immortalized Rat1 fibroblasts with different MYC status after 24 hours of 5 μM MYCMI-7 treatment, middle panel and right panels, normal REFs and normal peripheral blood lymphocytes, respectively, after 24 and 48 hours of 5 μM MYCMI-7 treatment. C) Measurement of viability and apoptosis by Apo-Tox Glo Triplex assay in A375 melanoma cells after 3 days of treatment with MYCMI-7 with the indicated concentrations. […] E) NHDFs treated with 3 μM MYCMI-7 for 72 hrs. Viability was measured by trypan blue exclusion assay. F) Cell growth measured with Cyt62 assay of primary normal human epidermal melanocytes (NHEM) treated for 72 hours with MYCMI-7, G) Viability measured by trypan blue exclusion assay of NHEM after treatment for 72 hours with MYCMI-7.

Chain of Recombinant human Top2a (P11388 whole entry): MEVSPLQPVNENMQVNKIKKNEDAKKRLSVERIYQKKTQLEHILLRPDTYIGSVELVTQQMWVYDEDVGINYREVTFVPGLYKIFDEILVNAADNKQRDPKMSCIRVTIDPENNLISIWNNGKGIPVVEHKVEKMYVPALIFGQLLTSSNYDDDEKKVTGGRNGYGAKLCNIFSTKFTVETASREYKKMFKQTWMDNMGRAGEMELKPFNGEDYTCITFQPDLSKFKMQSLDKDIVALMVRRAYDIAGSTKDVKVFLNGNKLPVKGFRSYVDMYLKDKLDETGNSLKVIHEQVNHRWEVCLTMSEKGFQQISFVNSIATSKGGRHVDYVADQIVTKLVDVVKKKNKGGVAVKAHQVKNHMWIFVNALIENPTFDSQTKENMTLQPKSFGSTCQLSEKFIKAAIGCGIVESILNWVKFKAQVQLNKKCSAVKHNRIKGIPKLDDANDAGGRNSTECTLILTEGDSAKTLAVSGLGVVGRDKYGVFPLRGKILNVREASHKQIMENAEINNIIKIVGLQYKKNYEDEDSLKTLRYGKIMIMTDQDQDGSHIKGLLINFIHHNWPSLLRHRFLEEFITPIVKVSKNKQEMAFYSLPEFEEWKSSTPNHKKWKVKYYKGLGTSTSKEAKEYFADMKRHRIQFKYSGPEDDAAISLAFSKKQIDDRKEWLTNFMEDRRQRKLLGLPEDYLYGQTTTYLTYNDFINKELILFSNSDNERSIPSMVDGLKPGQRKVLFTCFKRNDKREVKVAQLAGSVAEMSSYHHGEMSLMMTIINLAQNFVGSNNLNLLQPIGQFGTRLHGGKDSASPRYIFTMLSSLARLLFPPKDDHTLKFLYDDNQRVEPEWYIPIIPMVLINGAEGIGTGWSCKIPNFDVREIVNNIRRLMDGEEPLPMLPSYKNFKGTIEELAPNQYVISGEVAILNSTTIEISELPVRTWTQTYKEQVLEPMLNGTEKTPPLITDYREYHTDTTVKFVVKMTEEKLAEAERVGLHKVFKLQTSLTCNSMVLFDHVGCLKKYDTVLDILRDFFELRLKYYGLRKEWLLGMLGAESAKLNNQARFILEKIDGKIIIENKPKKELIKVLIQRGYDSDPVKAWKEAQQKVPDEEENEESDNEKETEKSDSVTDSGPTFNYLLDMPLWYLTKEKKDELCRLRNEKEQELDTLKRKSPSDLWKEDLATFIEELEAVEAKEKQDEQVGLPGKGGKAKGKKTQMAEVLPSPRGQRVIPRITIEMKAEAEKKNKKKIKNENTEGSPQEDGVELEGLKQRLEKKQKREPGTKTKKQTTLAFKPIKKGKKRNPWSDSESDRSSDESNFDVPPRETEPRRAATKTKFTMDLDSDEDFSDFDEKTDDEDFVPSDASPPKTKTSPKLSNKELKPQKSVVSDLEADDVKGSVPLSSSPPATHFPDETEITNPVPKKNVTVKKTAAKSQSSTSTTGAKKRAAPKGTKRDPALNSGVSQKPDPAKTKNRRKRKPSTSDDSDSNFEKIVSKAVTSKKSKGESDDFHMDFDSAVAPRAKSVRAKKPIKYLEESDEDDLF
T1 sequence (P04198 whole entry): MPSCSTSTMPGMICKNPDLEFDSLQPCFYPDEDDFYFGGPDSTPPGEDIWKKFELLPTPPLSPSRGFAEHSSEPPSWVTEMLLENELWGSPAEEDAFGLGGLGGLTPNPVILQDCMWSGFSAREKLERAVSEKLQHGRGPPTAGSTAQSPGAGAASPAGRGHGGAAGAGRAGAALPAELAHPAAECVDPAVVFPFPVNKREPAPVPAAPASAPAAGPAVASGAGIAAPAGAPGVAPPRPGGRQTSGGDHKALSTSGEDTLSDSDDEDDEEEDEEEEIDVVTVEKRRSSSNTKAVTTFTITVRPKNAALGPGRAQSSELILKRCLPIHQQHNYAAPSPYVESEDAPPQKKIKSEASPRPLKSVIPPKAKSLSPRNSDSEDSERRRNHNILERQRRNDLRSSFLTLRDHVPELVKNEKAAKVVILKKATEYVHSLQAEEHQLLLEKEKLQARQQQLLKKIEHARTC

CCN(CC)CC[n+]1ccc2c(C)c3[nH]c4ccccc4c3c(C)c2c1 [MYCMI-7, 2-(5,11-Dimethyl-6H-25-pyrido[4,3-b]carbazol-2-yl)-N,N-diethylethanamine bromide]
correlation between response and MYC mRNA/protein levels ([1]; 60 tumor cell lines): significant correlation
cells with high MYC mRNA/protein level responsive to MYCMI-7 ([1]; NCI-60, GI50 data of DTP-NCI): 79%
cells with low MYC levels less responsive ([1]; NCI-60, GI50 data of DTP-NCI): 63%
toxicity after intracerebroventricular injection [2]: no signs of toxicity
concentration at which TOP2A inhibition starts [3]: higher than 10 μM
concentration of complete TOP2A inhibition [3]: 100 µM
effect of TOP2A depletion on sensitivity to MYCMI-7 (resazurin assay) ([4]; auxin-induced depletion): does not affect
effect of TOP2A depletion on MYCMI-7-induced inhibition of MYC:MAX interactions (isPLA) ([4]; pre-treatment with auxin): no effect
ODC1 expression [5]: reduced ODC1 expression
Expression of MYCN [6]: reduced
efficiency compared with 10058-F4, JQ1 and cisplatin [7]: more efficient
GI50 ([7]; Homo sapiens): 150 to 1300 nM
apoptosis ([8]; MYC knockout HO15.19, 5 μM): not
apoptosis ([8]; TGR1 and HOMyc3, 5 μM): induced apoptosis
